This assay has as its target T1, rat EP4 receptor (Rattus norvegicus, UniProt P43114).
T1 construct: expressed in transfected cells; host or cells: HEK293
The experiment in a line: Evaluation test on rat EP4 receptor affinity ([3H]PGE2 binding assay). Particulars: [3H]PGE2 0.3 nM; membrane fraction of HEK293 cells expressing rat EP4; room temperature, 1 hour. Here is the method:
Evaluation Test on Rat EP4 Receptor Affinity
Cell Culture and Transfection
Using a 10 cm collagen-coated dish (Asahi Glass), HEK293 cells were cultured in a D-MEM culture medium, the culture medium was removed at a confluence (90 to 100% density state) and washed with a phosphate-buffered saline (PBS), and then the cells were detached with N,N,N′,N′-tetrakis(carboxymethyl)ethylenediamine (EDTA). The number of the cells were counted and seeded on a 15 cm collagen-coated dish to a confluence of 70%. The next day, to an Opti-MEM culture medium at 1.2 mL/dish was added Lipofectamine 2000 (Invitrogen) at 60 μL/dish, followed by being left to stand at room temperature for 5 minutes. A plasmid in which a rat EP4 (sequence number 1) had been inserted into a TA cloning site of pcDNA3.1-V5-His-topo was added thereto at 15 μg/dish. After leaving it to stand at room temperature for 30 minutes, the resultant was added to the dish and cultured for 20 to 24 hours. The cell culture was carried out in a CO2 incubator (37° C., 5% CO2).
Preparation of Membrane Fraction
The culture medium was removed by suction, 10 mL of cooled PBS was added thereto per 15 cm dish, and the cells were scraped using a cell scraper (Sumitomo Bakelite). After washing with cooled PBS (1,200 rpm, 4° C., 5 min), and then suspended in 6 mL of cooled 20 mM Tris-HCl (pH 7.4; Nakalai Tesque Inc., including 5 mM EDTA (Nakalai Tesque Inc.) per dish and homogenized using a Polytron, the homogenate was centrifuged (26,000 rpm, 20 min, 4° C.). The obtained precipitate was resuspended in cooled 20 mM Tris-HCl and homogenized again using a Polytron, and the homogenate was centrifuged (26,000 rpm, 20 min, 4° C.). The obtained precipitate was resuspended in 50 mM HEPES (pH 7.5; Dojindo Laboratories) to 1 mL per dish, homogenized using a Polytron, and freeze-stored at −80° C. as a membrane fraction. At this time, a part thereof was used for the measurement of the protein concentration. Measurement of the protein concentration was carried out using a Bio-Rad Protein assay kit (Bio-Rad Laboratories) in accordance with the appended standard Protocol in duplicate.
[^3H] PGE2 μL (final concentration 0.3 nM; Perkin Elmer), 100 μL (20 μg/well) of a membrane fraction prepared from the rat EP4 expression cell and 50 μL of a test compound were mixed in a 96-well microplate (Sumitomo Bakelite), incubated at room temperature for 1 hour, filtered by suction on a UniFilter-96 GF/B (Perkin Elmer) using a FilterMate Harvester (Perkin Elmer), and then washed three times with 300 μL/well of a cooled assay buffer. Dilution of [^3H]PGE2 and the membrane fraction was carried out using an assay buffer (50 mM HEPES, 10 mM MgCl2), and dilution of the test compound and the unlabeled PGE2 was carried out using DMSO and the assay buffer. Further, in the case a human serum albumin (HSA) is added, dilution was carried out using an assay buffer containing 4% HSA (final concentration 1%; Sigma). The UniFilter-96 GF/B was treated by preliminarily washing twice with 200 μL/well of a cooled assay buffer. The UniFilter-96 GF/B after filtration was dried in a dryer overnight, 50 μL/well of MicroScint20 (Perkin Elmer) was added thereto, and then the radioactivity was measured using a TopCount (Perkin Elmer). For measurement of the non-specific binding, an unlabeled PGE2 (final concentration 1 μM; Cayman) was added. All of the measurements were carried out in duplicate, and the specific binding amount was determined by subtracting the non-specific binding amount from the total binding amount.
According to Test method as above, the rat EP4 receptor affinity (Ki) of the compound of the formula (I) was measured. Ex represents Example Compound number.

In general, Ki refers to a dissociation constant, usually derived from enzyme kinetics or from competition with a known ligand.

T1 sequence (P43114 whole entry): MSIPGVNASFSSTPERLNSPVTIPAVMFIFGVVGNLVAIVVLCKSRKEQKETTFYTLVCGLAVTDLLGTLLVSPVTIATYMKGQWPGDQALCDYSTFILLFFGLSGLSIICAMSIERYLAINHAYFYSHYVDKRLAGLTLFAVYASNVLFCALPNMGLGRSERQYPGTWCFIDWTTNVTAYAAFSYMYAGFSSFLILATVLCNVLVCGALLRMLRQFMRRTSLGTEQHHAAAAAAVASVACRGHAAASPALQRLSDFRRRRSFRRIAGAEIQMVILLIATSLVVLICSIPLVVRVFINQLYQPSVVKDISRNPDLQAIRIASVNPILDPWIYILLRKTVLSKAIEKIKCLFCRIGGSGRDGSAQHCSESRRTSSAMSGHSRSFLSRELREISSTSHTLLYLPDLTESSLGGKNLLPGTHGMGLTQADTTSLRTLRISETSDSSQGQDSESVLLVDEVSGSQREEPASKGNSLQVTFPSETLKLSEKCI

`C[C@H](NC(=O)c1cccc2cnn(Cc3ccc(Cl)cc3)c12)c1ccc(C(=O)O)cc1` [Example 47] registered an inhibition constant Ki of 5.5 nM.
Regarding `CN(NC(=O)c1cccc2ccn(Cc3ccc(Cl)cc3)c12)c1ccc(C(=O)O)cc1` [Example 8], the Ki came out at 0.8 nM.
The value for `C[C@H](NC(=O)c1cccc2c1N(Cc1ccc(Cl)cc1)CC2)c1ccc(C(=O)O)cc1` [Example 22] was 0.79 nM; that for `O=C(O)c1ccc(CNC(=O)c2cccc3ccn(Cc4ccc(Cl)cc4)c23)cc1` [Example 111] was 2.6 nM.
As for `C[C@H](NC(=O)c1sccc1N(C)Cc1ccc(Cl)cc1)c1ccc(C(=O)O)cc1` [Example 7], the affinity, expressed as Ki, was 16 nM.
The molecule `O=C(NCC1CCC(C(=O)O)CC1)c1cccc2ccn(Cc3ccc(Cl)cc3)c12` (stereo not shown) [Example 110] came in with an inhibition constant Ki of 12 nM.
Molecule `C[C@H](NC(=O)c1cccc2ccn(Cc3ccc4ccccc4n3)c12)c1ccc(C(=O)O)cc1` [Example 57] displayed a Ki of 1.6 nM.
With `C[C@H](NC(=O)c1cccn1Cc1ccc(Cl)cc1)c1ccc(C(=O)O)cc1` [Example 39] the figure was 37 nM.
Molecule `CN(NC(=O)c1cc(Cl)cc2ccn(Cc3ccc(Cl)cc3)c12)c1ccc(C(=O)O)cc1` [Example 31] showed a Ki of 0.83 nM.
In turn, `C[C@H](NC(=O)c1cccc2nc(Nc3ccc(Cl)cc3)oc12)c1ccc(C(=O)O)cc1` [Example 46] had an inhibitory constant (Ki) of 11 nM.
`C[C@H](NC(=O)c1cc(Cl)cc2ccn(Cc3ccc(Cl)cc3)c12)c1ccc(C(=O)O)cc1` [Example 21]: the Ki was determined as 0.51 nM.
`CC(NC(=O)c1cccc2ccn(Cc3ccc(Cl)cc3)c12)[C@H]1CC[C@H](C(=O)O)CC1` (stereo partly shown) [Example 61] had an inhibitory constant (Ki) of 12 nM.
With `C[C@H](NC(=O)c1ccccc1-n1ccc2cc(Cl)ccc21)c1ccc(C(=O)O)cc1` [Example 50] the figure was 15 nM; with `C[C@H](NC(=O)c1cc2ccccc2n1Cc1ccc(Cl)cc1)c1ccc(C(=O)O)cc1` [Example 37], 9.9 nM; with `C[C@H](NC(=O)c1cccc2ccn(Cc3ccc(Cl)cc3)c12)c1ccc(-c2noc(=O)[nH]2)cc1` [Example 15], 3.5 nM.
`O=C(O)c1ccc2c(ccn2NC(=O)c2ccccc2Cc2ccc(Cl)cc2)c1` [Example 4, 1-{[2-(4-chlorobenzyl)benzoyl]amino}-1H-indole-5-carboxylic acid]: the Ki was found to be 7.5 nM.

These data come from patent US20110028463A1, “AMIDE COMPOUNDS” (Astellas Pharma Inc., priority 2007, published 2011).
